Assay results published in US6291442A, “Pharmacological modulators of voltage-gated potassium ion channels” (The General Hospital Corporation, priority 1999, dated 2001).
Entries after “also recorded” stand apart in the source; their conditions may differ.

What follows are compounds tested on Drosophila Shaker H4 potassium ion channels (assay: Patch voltage clamp recording, time course of channel closure (deactivation)). Details: inside-out excised patch voltage clamp, FIG. 3.
Source text: Standard patch recording methods were used to record potassium channel currents from the transfected cells (Hamill, O. P., Marty, A., Neher, E., Sakmann, B., and Sigworth, F. J., Pfluegers Arch(1981), 391:85, the entire teachings of which are incorporated herein by reference). If expression was sufficiently high, the excised inside-out or excised outside-out recording configurations was used; otherwise the whole cell recording configuration was used. […] Standard extracellular saline was used in the recording pipette, and standard intracellular saline was perfused on the exposed side, or bath side, of the membrane. Test compounds were added to the intracellular saline at the concentration specified.
For recording the time course of channel activation and deactivation, voltage clamp steps were applied from a resting potential of -80 to -100 mV to an activation potential of between -60 and +60 mV; after these activating steps (lasting 5-100 ms in duration), the voltage was returned to a potential of between -120 and -60 mV to monitor the time course of closure, or de-activation, of the channels. Standard experimental solutions contained, in mM: 150 NaCl, 10 KCl, 3 CaCl2, 1 MgCl2, and 10 HEPES, at pH 7.4 in the pipette solution; and 160 KCl, 0.5 MgCl2, 1 EGTA, and 10 HEPES, at pH 7.4 in the bath solution. Solutions with Cd^2+ contained no EGTA.
In Table I, II and III, the time course of closure of Drosophila Shaker H4 potassium ion channels was measured in the presence of a test compound and compared to the time course of closure in the absence of a test compound.

Row | Structure (SMILES) | effect on the maximal level of outward or inward current
1 | O=C(O)c1ccc([N+](=O)[O-])cc1Oc1cccc([N+](=O)[O-])c1 | little or no effect

Same assay, conditions: inside-out excised patch voltage clamp, FIG. 3 and 4

Row | Structure (SMILES) | effect on the closing of the ion channel
2 | O=C(O)c1ccc([N+](=O)[O-])cc1Oc1cccc([N+](=O)[O-])c1 | slows the closing of the ion channel
3 | CCOc1ccc(Nc2cc([N+](=O)[O-])ccc2C(=O)O)cc1 [N-(4-ethoxyphenyl)-4-nitro anthranilic acid] | speeds the closing of the ion channel

Same assay, conditions: inside-out excised patch voltage clamp, FIG. 4

Row | Structure (SMILES) | reduction in the maximal level of outward or inward current
4 | CCOc1ccc(Nc2cc([N+](=O)[O-])ccc2C(=O)O)cc1 [N-(4-ethoxyphenyl)-4-nitro anthranilic acid] | < 20%

Same assay, conditions: shaker h4 channel patch, 500 µM

Row | Structure (SMILES) | Approximate Increase in Time Course of Closure
5 | COc1ccc(Oc2c(C(=O)O)cccc2[N+](=O)[O-])cc1 [2-(4-methoxyphenoxy)-3-nitrobenzoic acid] | 1.5 X
6 | CC(=O)Nc1ccc(C=Cc2ccc([N+](=O)[O-])cc2S(=O)(=O)O)c(S(=O)(=O)O)c1 [4-nitro-4'-acetamide-2,2'-disulfonate stilbene] | 2 X
7 | CC(C(=O)O)c1cccc(Oc2ccccc2)c1 (centres unmarked) [fenoprofen, reference compound] | 2.2 X

More lines, now with the values ahead:

Row | Approximate Increase in Time Course of Closure | Structure (SMILES)
8 | 2.2 X | O=C(O)c1ccccc1[S+]([O-])c1ccccc1 (centres unmarked) [1-carboxydiphenyl sulfoxide]
9 | 2 X | Nc1cc(C(=O)c2ccccc2C(=O)O)ccc1Cl [2-(3-amino-4-chlorobenzoyl)benzoic acid]
10 | < 2 X | COc1cccc(Oc2c(OC)cccc2C(=O)O)c1 [2-(3-methoxyphenoxy)-3-methoxybenzoic acid]
11 | 3-4 X | O=C(O)c1ccccc1Oc1cccc([N+](=O)[O-])c1 [2-(3-nitrophenoxy)benzoic acid]
12 | ≥ 2 X | Nc1ccc(C(=O)c2ccccc2C(=O)O)cc1[N+](=O)[O-] [2-(4-amino-3-nitro-benzoyl)benzoic acid]
13 | 2 X | O=C(O)c1ccccc1C(=O)c1ccc(Cl)c([N+](=O)[O-])c1 [2-(4-chloro-3-nitrobenzoyl)benzoic acid]
14 | 2 X | O=C(O)c1ccccc1C(=O)c1ccc(Cl)cc1 [2-(4-chlorobenzoyl)benzoic acid]
15 | 9 X | Nc1cccc(C(=O)O)c1Oc1ccc(Cl)cc1 [2-(4-chlorophenoxy)-3-aminobenzoic acid]
16 | 2 X | Cc1ccc(C(=O)c2ccccc2C(=O)O)cc1 [2-(p-toluoyl)benzoic]
17 | 2 X | Nc1ccccc1C(=O)c1ccccc1C(=O)O [2-aminobenzophenone-2-carboxylic]
18 | 2.5 X | O=C(O)c1ccccc1C(=O)c1ccccc1 [2-benzoylbenzoic acid]
19 | < 2 X | Cc1ccc(Sc2ccccc2C(=O)O)c(S(N)(=O)=O)c1 [2-sulfamide-4-methyl-2'-carboxydiphenyl sulfide]
20 | 2.4 X | O=C(O)c1cccnc1Nc1cccc(C(F)(F)F)c1 [niflumic acid, reference compound]

Same assay, conditions: test compound 0.5 mM; compared to closure in the absence of test compound

Row | Structure (SMILES) | Approximate Decrease in Time Course of Closure
21 | Cc1c(C)c(C)c(C(=O)c2ccccc2C(=O)O)c(C)c1C [2-(2,3,4,5,6-pentamethylbenzoyl) benzoic acid] | 2 X
22 | CCCCN(CCCC)c1ccc(C(=O)c2ccccc2C(=O)O)c(O)c1 [2-(4-dibutylamino-2-hydroxybenzoyl) benzoic acid] | 6.4 X
23 | O=C(O)c1c(Cl)c(Cl)c(Cl)c(Cl)c1C(=O)c1ccccc1 [2-benzoyl-3,4,5,6-tetrachloro-benzoic] | ≥ 2 X
24 | O=C(O)c1ccc(Br)cc1Oc1ccccc1 [4-bromo-2-(phenoxy) benzoic acid] | ≥ 2 X
25 | COc1cccc(C(=O)c2cc(OC)ccc2C(=O)O)c1 [4-methoxy-2-(3-methoxy-benzoyl)-benzoic acid] | ≤ 2 X
26 | CC(C(=O)O)c1ccc2c(c1)[nH]c1ccc(Cl)cc12 (centres unmarked) [Carprofen, reference compound] | 3.2 X
27 | Cc1ccc(Cl)c(Nc2ccccc2C(=O)O)c1Cl [Meclofenamic acid, reference compound] | 2.5 X
28 | Nc1cc(Cl)ccc1Nc1ccccc1C(=O)O [N-(2-amino-4-chlorophenyl) anthranilic acid] | 2.4 X
29 | CCOc1ccc(Nc2cc([N+](=O)[O-])ccc2C(=O)O)cc1 [N-(4-ethoxyphenyl)-4-nitro anthranilic acid] | 5-10 X

What follows are compounds tested on Shaker class voltage-gated potassium ion channels (assay: not given). Details: tetraethylammonium 5 mM alone; depolarizing pulse +60 mV.
Procedure: At a depolarizing pulse of +60 mV, the steady state blockade of current caused by channel-blockers was measured as the current in the presence of the channel-blocker divided by the current in the absence of the channel-blocker.

Row | Structure (SMILES) | steady state blockade of current
30 | CC[N+](CC)(CC)CC [tetraethylammonium] | 15%

Same assay, conditions: tetraethylammonium 5 mM in the presence of 10 mM 2-benzoylbenzoic acid; +60 mV

Row | Structure (SMILES) | steady state blockade of current
31 | CC[N+](CC)(CC)CC [tetraethylammonium] | 16%

These compounds were tested on Drosophila Shaker H4 potassium ion channels (assay: Application to intracellular (inside-out patch) versus extracellular (outside-out patch) side of the membrane). Details: inside-out versus outside-out excised patch.
Type: cell-based
Procedure: Compounds were applied to the intracellular side of the cell membrane by adding the compound to the solution bathing the exposed face of an excised inside-out patch containing Drosophila Shaker H4 potassium ion channels. Application to the extracellular side of the membrane was performed by adding the compound to the solution bathing the exposed face of an excised outside-out patch containing Drosophila Shaker H4 potassium ion channels.

Row | Structure (SMILES) | side of the cell membrane from which the compound is effective
32 | O=C(O)c1ccccc1C(=O)c1ccccc1 [2-benzoylbenzoic acid] | effective from only one side of the membrane; also recorded: effective only from the intracellular side of the cell membrane
